In patent US9573911B2, “Diphosphate mimetics and uses thereof” (President and Fellows of Harvard College, priority 2011, dated 2017):

Columns and labels:
Assay in all cases: Kinase profiling, Invitrogen Z'-LYTE
Type in all cases: biochemical
Conditions in all cases: Table 2
AURKA (Aurora A) = biological target: T1, AURKA (Aurora A) (Homo sapiens, UniProt O14965)
T1 construct: purchased Invitrogen
T1 sequence (O14965 1-403): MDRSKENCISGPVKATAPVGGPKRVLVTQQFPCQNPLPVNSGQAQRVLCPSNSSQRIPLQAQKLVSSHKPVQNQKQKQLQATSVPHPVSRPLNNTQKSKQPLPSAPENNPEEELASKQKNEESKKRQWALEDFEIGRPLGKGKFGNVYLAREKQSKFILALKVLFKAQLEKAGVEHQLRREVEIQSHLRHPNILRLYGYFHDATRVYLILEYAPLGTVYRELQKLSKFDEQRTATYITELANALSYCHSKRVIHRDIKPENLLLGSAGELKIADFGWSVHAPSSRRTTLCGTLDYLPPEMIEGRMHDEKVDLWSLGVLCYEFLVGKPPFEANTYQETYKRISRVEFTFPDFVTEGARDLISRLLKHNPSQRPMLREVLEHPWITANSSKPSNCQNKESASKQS
Procedure: (§1) Kinase profiling was conducted using Invitrogen Z'-LYTE screening protocol and assay conditions found at www.invitrogen.com. Compound (2) inhibited PLK1 completely at 5 μM.

EPHA1 = biological target: T2, EPHA1 (Homo sapiens, UniProt P21709)
T2 construct: purchased Invitrogen
T2 sequence (P21709 26-976): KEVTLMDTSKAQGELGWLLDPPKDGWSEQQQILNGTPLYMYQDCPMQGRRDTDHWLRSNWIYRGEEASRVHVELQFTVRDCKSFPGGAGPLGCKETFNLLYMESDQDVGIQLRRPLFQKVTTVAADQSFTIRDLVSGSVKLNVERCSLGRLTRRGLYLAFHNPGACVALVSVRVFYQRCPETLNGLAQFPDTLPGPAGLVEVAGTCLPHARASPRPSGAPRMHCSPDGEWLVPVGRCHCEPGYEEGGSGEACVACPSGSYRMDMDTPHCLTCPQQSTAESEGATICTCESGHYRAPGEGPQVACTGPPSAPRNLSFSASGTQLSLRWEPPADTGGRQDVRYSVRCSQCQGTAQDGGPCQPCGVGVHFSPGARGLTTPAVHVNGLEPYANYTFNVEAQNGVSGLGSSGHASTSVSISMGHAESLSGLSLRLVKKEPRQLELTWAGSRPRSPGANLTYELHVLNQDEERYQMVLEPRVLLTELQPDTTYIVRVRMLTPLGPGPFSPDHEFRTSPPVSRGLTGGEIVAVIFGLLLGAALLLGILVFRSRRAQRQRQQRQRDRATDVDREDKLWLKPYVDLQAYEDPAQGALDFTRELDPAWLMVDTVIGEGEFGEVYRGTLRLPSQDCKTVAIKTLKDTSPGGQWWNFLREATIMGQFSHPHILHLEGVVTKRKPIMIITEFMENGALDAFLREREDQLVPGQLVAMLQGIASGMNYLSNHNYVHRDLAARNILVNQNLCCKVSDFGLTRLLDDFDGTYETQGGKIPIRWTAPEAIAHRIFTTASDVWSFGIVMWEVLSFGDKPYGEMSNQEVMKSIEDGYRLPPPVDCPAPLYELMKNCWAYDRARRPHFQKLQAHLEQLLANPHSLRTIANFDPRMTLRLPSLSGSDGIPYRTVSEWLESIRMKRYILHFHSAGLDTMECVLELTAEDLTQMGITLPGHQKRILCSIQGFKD
Procedure: as §1

FGR = biological target: T3, FGR (Homo sapiens, UniProt P09769)
T3 construct: purchased Invitrogen
T3 sequence (P09769 whole entry): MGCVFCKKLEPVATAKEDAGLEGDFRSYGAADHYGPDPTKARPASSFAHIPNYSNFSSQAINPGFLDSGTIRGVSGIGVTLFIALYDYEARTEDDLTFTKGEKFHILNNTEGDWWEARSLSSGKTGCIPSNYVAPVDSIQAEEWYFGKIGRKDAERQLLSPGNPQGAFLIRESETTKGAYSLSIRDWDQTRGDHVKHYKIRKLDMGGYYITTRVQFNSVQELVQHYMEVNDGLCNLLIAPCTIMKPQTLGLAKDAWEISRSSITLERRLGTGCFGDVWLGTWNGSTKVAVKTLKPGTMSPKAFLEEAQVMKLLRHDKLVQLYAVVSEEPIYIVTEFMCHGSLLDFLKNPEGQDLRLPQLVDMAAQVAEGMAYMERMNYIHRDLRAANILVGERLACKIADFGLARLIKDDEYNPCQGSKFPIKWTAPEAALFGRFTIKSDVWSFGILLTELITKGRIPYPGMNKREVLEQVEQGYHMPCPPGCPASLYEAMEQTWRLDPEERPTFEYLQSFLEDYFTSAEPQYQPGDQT
Procedure: as §1

MAPKAPK5 (PRAK) = biological target: T4, MAPKAPK5 (PRAK) (Homo sapiens, UniProt Q8IW41)
T4 construct: purchased Invitrogen
T4 sequence (Q8IW41 1-473): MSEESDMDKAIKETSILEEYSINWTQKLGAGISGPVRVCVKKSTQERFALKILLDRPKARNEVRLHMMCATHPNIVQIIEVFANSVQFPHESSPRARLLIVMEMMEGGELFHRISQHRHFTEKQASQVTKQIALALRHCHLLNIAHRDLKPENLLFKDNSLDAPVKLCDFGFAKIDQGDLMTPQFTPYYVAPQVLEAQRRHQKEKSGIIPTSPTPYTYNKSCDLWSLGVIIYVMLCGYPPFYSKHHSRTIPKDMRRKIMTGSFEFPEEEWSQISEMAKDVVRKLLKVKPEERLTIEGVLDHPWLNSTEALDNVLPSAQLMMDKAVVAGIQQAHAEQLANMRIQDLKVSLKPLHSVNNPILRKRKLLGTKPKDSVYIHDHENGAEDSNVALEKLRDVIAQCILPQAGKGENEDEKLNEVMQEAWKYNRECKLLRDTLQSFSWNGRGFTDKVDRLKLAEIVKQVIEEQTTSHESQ
Procedure: as §1

MST1R (RON) = biological target: T5, MST1R (RON) (Homo sapiens, UniProt Q04912)
T5 construct: purchased Invitrogen
T5 sequence (Q04912 25-1400): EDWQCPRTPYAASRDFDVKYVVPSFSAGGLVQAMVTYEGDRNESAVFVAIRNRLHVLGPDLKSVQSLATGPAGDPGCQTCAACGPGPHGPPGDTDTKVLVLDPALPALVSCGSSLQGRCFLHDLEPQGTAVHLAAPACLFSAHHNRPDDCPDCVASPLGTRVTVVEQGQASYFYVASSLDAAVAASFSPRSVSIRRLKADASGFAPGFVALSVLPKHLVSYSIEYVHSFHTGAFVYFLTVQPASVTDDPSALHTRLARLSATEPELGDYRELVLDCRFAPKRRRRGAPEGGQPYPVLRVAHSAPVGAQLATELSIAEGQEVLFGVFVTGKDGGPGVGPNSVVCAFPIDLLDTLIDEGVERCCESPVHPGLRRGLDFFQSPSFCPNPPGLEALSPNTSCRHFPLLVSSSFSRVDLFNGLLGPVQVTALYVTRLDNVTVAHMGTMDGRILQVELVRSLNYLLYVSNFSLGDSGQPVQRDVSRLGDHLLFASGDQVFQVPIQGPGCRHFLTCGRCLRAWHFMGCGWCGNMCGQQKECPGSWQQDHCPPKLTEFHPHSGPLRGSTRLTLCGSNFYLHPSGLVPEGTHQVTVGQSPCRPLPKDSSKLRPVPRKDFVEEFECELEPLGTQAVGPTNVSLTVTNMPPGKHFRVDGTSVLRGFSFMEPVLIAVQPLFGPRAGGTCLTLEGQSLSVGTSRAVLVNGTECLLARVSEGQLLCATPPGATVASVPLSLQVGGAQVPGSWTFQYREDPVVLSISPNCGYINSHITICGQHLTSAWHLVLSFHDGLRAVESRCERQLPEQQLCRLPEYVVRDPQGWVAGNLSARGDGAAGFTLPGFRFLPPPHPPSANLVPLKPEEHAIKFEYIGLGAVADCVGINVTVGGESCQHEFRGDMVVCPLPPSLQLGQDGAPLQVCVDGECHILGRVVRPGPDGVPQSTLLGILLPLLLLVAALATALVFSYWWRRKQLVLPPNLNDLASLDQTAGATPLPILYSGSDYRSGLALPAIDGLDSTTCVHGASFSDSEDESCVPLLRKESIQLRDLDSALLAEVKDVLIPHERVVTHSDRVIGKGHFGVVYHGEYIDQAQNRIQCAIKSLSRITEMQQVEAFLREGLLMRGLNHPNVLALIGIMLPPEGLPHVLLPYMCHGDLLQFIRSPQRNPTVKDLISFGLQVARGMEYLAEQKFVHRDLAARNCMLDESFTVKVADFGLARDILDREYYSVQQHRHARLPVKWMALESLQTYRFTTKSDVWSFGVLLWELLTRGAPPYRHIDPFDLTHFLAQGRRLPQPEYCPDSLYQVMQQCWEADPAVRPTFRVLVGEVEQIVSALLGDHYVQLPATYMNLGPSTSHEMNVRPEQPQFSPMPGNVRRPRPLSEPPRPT
Procedure: as §1

RET = biological target: T6, RET (Homo sapiens, UniProt P07949)
T6 construct: purchased Invitrogen
T6 sequence (P07949 29-1114): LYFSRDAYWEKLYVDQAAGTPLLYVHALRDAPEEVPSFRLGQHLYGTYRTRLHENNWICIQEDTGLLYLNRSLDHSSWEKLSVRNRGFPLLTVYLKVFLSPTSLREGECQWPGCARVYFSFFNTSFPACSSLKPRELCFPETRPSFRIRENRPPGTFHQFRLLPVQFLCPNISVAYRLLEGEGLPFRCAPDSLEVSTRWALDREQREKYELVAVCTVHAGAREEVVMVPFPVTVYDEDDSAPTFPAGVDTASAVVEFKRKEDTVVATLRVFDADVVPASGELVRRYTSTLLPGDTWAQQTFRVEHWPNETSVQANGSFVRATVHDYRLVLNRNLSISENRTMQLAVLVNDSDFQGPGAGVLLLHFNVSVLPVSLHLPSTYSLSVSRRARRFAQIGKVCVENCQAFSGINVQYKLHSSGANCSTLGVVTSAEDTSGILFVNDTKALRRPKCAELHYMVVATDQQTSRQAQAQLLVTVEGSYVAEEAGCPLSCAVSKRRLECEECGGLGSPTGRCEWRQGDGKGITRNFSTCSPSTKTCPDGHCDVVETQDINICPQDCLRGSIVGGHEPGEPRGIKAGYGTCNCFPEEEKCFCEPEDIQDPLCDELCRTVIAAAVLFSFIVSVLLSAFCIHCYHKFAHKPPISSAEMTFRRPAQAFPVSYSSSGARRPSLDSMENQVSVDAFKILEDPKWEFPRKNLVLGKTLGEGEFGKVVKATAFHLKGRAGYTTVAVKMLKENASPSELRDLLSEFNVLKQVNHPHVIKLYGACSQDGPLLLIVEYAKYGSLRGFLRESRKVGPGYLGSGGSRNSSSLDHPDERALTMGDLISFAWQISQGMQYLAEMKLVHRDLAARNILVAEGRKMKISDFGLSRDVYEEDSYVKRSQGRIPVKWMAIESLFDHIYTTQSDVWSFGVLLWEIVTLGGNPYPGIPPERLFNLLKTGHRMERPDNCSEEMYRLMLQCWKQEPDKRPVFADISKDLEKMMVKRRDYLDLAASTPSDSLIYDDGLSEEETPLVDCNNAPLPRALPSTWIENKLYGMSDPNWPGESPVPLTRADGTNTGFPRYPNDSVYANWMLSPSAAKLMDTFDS
Procedure: as §1

Question: How did the “% Inhibition Point 1” value (AURKA (Aurora A)) turn out when `COc1ccc(OC(=O)n2c(=O)oc3cc(C(C)=O)ccc32)cc1` [Compound 2] was run?
Answer: −146%

Question: What about the “% Inhibition Point 2” value (AURKA (Aurora A)) of the same molecule?
Answer: −146%

Question: And the “% Inhibition mean” value (AURKA (Aurora A))?
Answer: −146%

Question: What about the “% Inhibition Point 1” value (EPHA1) of the same molecule?
Answer: −62%

Question: What about the “% Inhibition Point 2” value (EPHA1) of the same molecule?
Answer: −107%

Question: And the “% Inhibition mean” value (EPHA1)?
Answer: −85%

Question: What about the “% Inhibition Point 1” value (FGR) of the same molecule?
Answer: 21%

Question: What about the “% Inhibition Point 2” value (FGR) of the same molecule?
Answer: 21%

Question: What about the “% Inhibition mean” value (FGR) of the same molecule?
Answer: 21%

Question: What about the “% Inhibition Point 1” value (MAPKAPK5 (PRAK)) of the same molecule?
Answer: −146%

Question: What about the “% Inhibition Point 2” value (MAPKAPK5 (PRAK)) of the same molecule?
Answer: −147%

Question: What about the “% Inhibition mean” value (MAPKAPK5 (PRAK)) of the same molecule?
Answer: −146%

Question: What about the “% Inhibition Point 1” value (MST1R (RON)) of the same molecule?
Answer: −258%

Question: And the “% Inhibition Point 2” value (MST1R (RON))?
Answer: −245%

Question: What about the “% Inhibition mean” value (MST1R (RON)) of the same molecule?
Answer: −252%

Question: What about the “% Inhibition Point 1” value (RET) of the same molecule?
Answer: −91%

Question: And the “% Inhibition Point 2” value (RET)?
Answer: −70%

Question: And the “% Inhibition mean” value (RET)?
Answer: −80%
